Counter-ions that a name gives are not always drawn.
Molecular target: T1, human IDO1 (Homo sapiens, UniProt P14902)
T1 construct: expressed in transfected cells
Assay: IDO inhibition assay in HEK293 cells stably expressing human IDO1 (kynurenine production, Ehrlich reagent, absorbance 490 nm)
Assay type: cell-based
Conditions: 20 hours incubation with compound, 500 nM reference standard = 100% inhibition, read-out: IDO1 HEK Human IC50
Summary of the method: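 HEK293 clones stably expressing human IDO1 (10,000 cells/well, phenol red-free RPMI, 10% FBS) were treated with compound for 20 hours at 37° C. After 0.2% TCA and 30 min at 50° C., kynurenine was read with Ehrlich reagent at 490 nm. IC50 was normalised to DMSO (0%) and 500 nM reference standard (100%).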

T1 sequence (P14902 whole entry): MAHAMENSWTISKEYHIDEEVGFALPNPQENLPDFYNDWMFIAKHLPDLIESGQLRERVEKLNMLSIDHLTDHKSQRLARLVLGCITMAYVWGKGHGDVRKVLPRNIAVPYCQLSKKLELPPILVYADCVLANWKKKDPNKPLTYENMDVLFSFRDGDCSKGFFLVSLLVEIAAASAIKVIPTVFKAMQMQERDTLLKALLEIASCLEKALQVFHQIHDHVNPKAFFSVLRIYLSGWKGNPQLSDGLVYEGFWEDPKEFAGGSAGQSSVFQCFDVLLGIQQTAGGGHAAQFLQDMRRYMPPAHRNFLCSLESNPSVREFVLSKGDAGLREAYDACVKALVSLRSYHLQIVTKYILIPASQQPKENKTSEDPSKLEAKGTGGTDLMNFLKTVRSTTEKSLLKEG

IC50 [nM] | Compound
520 | Cc1ccc(CC(=O)Nc2cc(-c3ccccc3-c3nnn[nH]3)nc(N3CCc4ccccc4C3)c2)cc1 [Example 132, N-(2-(2-(1H-tetrazol-5-yl)phenyl)-6-(3,4-dihydroisoquinolin-2(1H)-yl)pyridin-4-yl)-2-(p-tolyl)acetamide]
134 | CC(C)CN(Cc1ccccc1)c1cc(NC(=O)Nc2ccc(F)cc2)cc(-c2ccccc2-c2nnn[nH]2)n1 [Example 69, 1-(2-(2-(1H-tetrazol-5-yl)phenyl)-6-(benzyl(isobutyl)amino)pyridin-4-yl)-3-(4-fluorophenyl)urea, TFA]
11.5 | CC(C)CN(Cc1ccccc1)c1cc(Nc2ncc(F)cn2)cc(-c2ccccc2-c2nnn[nH]2)n1 [Example 55, 6-(2-(1H-tetrazol-5-yl)phenyl)-N2-benzyl-N4-(5-fluoropyrimidin-2-yl)-N2-isobutylpyridine-2,4-diamine, 1.5 TFA]
2 | COc1cc(Nc2cc(-c3ccccc3-c3nnn[nH]3)nc(N(Cc3ccccc3)CC(C)C)c2)ccc1Cl [Example 188, 6-(2-(1H-tetrazol-5-yl)phenyl)-N2-benzyl-N4-(4-chloro-3-methoxyphenyl)-N2-isobutylpyridine-2,4-diamine]
8.5 | Cc1ccc(CC(=O)Nc2cc(-c3ccccc3-c3nnn[nH]3)nc(N(Cc3ccccc3)CC(C)C)n2)cc1 [Example 8, N-(6-(2-(1H-tetrazol-5-yl)phenyl)-2-(benzyl(isobutyl)amino)pyrimidin-4-yl)-2-(p-tolyl)acetamide]
4.9 | CC(C)CN(Cc1ccccc1)c1cc(Nc2ccc(F)cc2)cc(-c2ccccc2-c2nnn[nH]2)n1 [Example 170, 6-(2-(1H-tetrazol-5-yl)phenyl)-N2-benzyl-N4-(4-fluorophenyl)-N2-isobutylpyridine-2,4-diamine]
964 | CCCN(Cc1ccccc1)c1cc(NC(=O)C2(c3ccccc3)CC2)cc(-c2ccccc2-c2nn[nH]n2)n1 [Example 223, N-(2-(2-(2H-tetrazol-5-yl)phenyl)-6-(benzyl(propyl)amino)pyridin-4-yl)-1-phenylcyclopropanecarboxamide]
76.8 | CCCN(Cc1ccccc1)c1cc(NC(=O)Cc2csc3ccccc23)cc(-c2ccccc2-c2nn[nH]n2)n1 [Example 216, N-(2-(2-(2H-tetrazol-5-yl)phenyl)-6-(benzyl(propyl)amino)pyridin-4-yl)-2-(benzo[b]thiophen-3-yl)acetamide]
411 | CCCN(c1cc(NC(=O)Nc2ccc(C)cc2)cc(-c2ccccc2-c2nnn[nH]2)n1)C1CCCCC1 [Example 258, 1-(2-(2-(1H-tetrazol-5-yl)phenyl)-6-(cyclohexyl(propyl)amino)pyridin-4-yl)-3-(p-tolyl)urea]
33.1 | Cc1cnc(Nc2cc(-c3ccccc3-c3nnn[nH]3)nc(N(Cc3ccc(F)cc3)CC(C)C)c2)nc1 [Example 40, 6-(2-(1H-tetrazol-5-yl)phenyl)-N2-(4-fluorobenzyl)-N2-isobutyl-N4-(5-methylpyrimidin-2-yl)pyridine-2,4-diamine, TFA]
1600 | Cc1ccc(CC(=O)Nc2cc(-c3ccccc3-c3nnn[nH]3)nc(N3CCCC3)c2)cc1 [Example 131, N-(2-(2-(1H-tetrazol-5-yl)phenyl)-6-(pyrrolidin-1-yl)pyridin-4-yl)-2-(p-tolyl)acetamide]
10.7 | CC(C)CN(Cc1ccc(F)cc1)c1cc(Nc2ccc(F)cn2)cc(-c2ccccc2-c2nnn[nH]2)n1 [Example 48, 6-(2-(1H-tetrazol-5-yl)phenyl)-N2-(4-fluorobenzyl)-N4-(5-fluoropyridin-2-yl)-N2-isobutylpyridine-2,4-diamine]
1250 | COc1ccccc1N1CCN(c2cc(NC(=O)Cc3ccc(C)cc3)cc(-c3ccccc3-c3nnn[nH]3)n2)CC1 [Example 129, N-(2-(2-(1H-tetrazol-5-yl)phenyl)-6-(4-(2-methoxyphenyl)piperazin-1-yl)pyridin-4-yl)-2-(p-tolyl)acetamide]
139 | CCCN(Cc1ccccc1)c1cc(Nc2nc(-c3ccccc3)cs2)cc(-c2ccccc2-c2nnn[nH]2)n1 [Example 59, 6-(2-(1H-tetrazol-5-yl)phenyl)-N2-benzyl-N4-(4-phenylthiazol-2-yl)-N2-propylpyridine-2,4-diamine]
18.1 | Cc1ccc(CC(=O)Nc2cc(-c3ccccc3-c3nnn[nH]3)nc(N(Cc3ccccc3)CC(C)C)n2)c(F)c1 [Example 11, N-(6-(2-(1H-tetrazol-5-yl)phenyl)-2-(benzyl(isobutyl)amino)pyrimidin-4-yl)-2-(2-fluoro-4-methylphenyl)acetamide]
508 | CCCN(Cc1ccccc1)c1cc(NC(=O)Cc2ccc(C)cc2)cc(-c2ccccc2S(N)(=O)=O)n1 [Example 33, N-(2-(benzyl (propyl)amino)-6-(2-sulfamoylphenyl)pyridin-4-yl)-2-(p-tolyl) acetamide]
131 | CC(C)CN(Cc1ccccc1)c1cc(Nc2ccn3nccc3n2)cc(-c2ccccc2-c2nnn[nH]2)n1 [Example 50, 6-(2-(1H-tetrazol-5-y1)phenyl)-N2-benzyl-N2-isobutyl-N4-(pyrazolo[1,5-a]pyrimidin-5-yl)pyridine-2,4-diamine]

IC50 [nM] | Compound
139 | CC(C)CN(Cc1ccccc1)c1cc(NC(=O)Cc2ccc(C(C)C)cc2)cc(-c2ccccc2-c2nnn[nH]2)n1 [Example 230, N-(2-(2-(1H-tetrazol-5-yl)phenyl)-6-(benzyl(isobutyl)amino)pyridin-4-yl)-2-(4-isopropylphenyl)acetamide]
80.2 | CCCN(Cc1ccccc1)c1cc(NC(=O)Cc2ccccc2C(F)(F)F)cc(-c2ccccc2-c2nn[nH]n2)n1 [Example 205, N-(2-(2-(2H-tetrazol-5-yl)phenyl)-6-(benzyl(propyl)amino)pyridin-4-yl)-2-(2-(trifluoromethyl)phenyl)acetamide]
58.4 | CC(C)CN(Cc1ccccc1)c1cc(Nc2ncccc2F)cc(-c2ccccc2-c2nnn[nH]2)n1 [Example 178, 6-(2-(1H-tetrazol-5-yl)phenyl)-N2-benzyl-N4-(3-fluoropyridin-2-yl)-N2-isobutylpyridine-2,4-diamine]
1080 | Cc1ccc(NC(=O)Nc2cc(-c3ccccc3C(=O)O)nc(N(CC(C)C)CC(C)C)c2)cc1 [Example 254, 2-(6-(diisobutylamino)-4-(3-(p-tolyl)ureido)pyridin-2-yl)benzoic acid]
972 | CC(C)CN(CC(C)C)c1cc(NC(=O)Nc2ccccc2F)cc(-c2ccccc2-c2nnn[nH]2)n1 [Example 253, 1-(2-(2-(1H-tetrazol-5-yl)phenyl)-6-(diisobutylamino)pyridin-4-yl)-3-(2-fluorophenyl)urea]
26.2 | CCc1cnc(Nc2cc(-c3ccccc3-c3nnn[nH]3)nc(N(Cc3ccccc3)CC(C)C)c2)nc1 [Example 162, 6-(2-(1H-tetrazol-5-yl)phenyl)-N2-benzyl-N4-(5-ethylpyrimidin-2-yl)-N2-isobutylpyridine-2,4-diamine]
82.4 | CCCN(Cc1ccccc1)c1cc(NC(=O)Cc2cccc3ccccc23)cc(-c2ccccc2-c2nn[nH]n2)n1 [Example 200, N-(2-(2-(2H-tetrazol-5-yl)phenyl)-6-(benzyl(propyl)amino)pyridin-4-yl)-2-(naphthalen-1-yl)acetamide]
952 | CCN(Cc1ccccc1)c1nc(NC(=O)Nc2ccc(C)cc2)cc(-c2ccccc2-c2nnn[nH]2)n1 [Example 4, 1-(6-(2-(1H-tetrazol-5-yl)phenyl)-2-(benzyl(ethyl)amino)pyrimidin-4-yl)-3-(p-tolyl)urea]
961 | CC(C)CN(Cc1ccccc1)c1cc(NC(=O)Cc2ccc(F)c(Cl)c2)cc(-c2ccccc2-c2nnn[nH]2)n1 [Example 233, N-(2-(2-(1H-tetrazol-5-yl)phenyl)-6-(benzyl(isobutyl)amino)pyridin-4-yl)-2-(3-chloro-4-fluorophenyl)acetamide]
239 | CCCN(Cc1ccccc1)c1cc(NC(=O)Cc2cccc(Br)c2)cc(-c2ccccc2-c2nn[nH]n2)n1 [Example 217, N-(2-(2-(2H-tetrazol-5-yl)phenyl)-6-(benzyl(propyl)amino)pyridin-4-yl)-2-(3-bromophenyl)acetamide]
16.2 | CCCN(Cc1ccccc1)c1nc(NC(=O)Cc2ccc(C)cc2)cc(-c2ccccc2-c2nnn[nH]2)n1 [Example 23, N-(6-(2-(1H-tetrazol-5-yl)phenyl)-2-(benzyl(propyl)amino)pyrimidin-4-yl)-2-(p-tolyl)acetamide]
54.9 | Cc1cc(F)ccc1Nc1cc(-c2ccccc2-c2nnn[nH]2)nc(N(Cc2ccccc2)CC(C)C)c1 [Example 175, 6-(2-(1H-tetrazol-5-yl)phenyl)-N2-benzyl-N4-(4-fluoro-2-methylphenyl)-N2-isobutylpyridine-2,4-diamine]
27.9 | CCCN(Cc1ccc(F)cc1)c1cc(NC(=O)Cc2ccc(C)cc2F)cc(-c2ccccc2-c2nnn[nH]2)n1 [Example 75, N-(2-(2-(1H-tetrazol-5-yl)phenyl)-6-((4-fluorobenzyl)(propyl)amino)pyridin-4-yl)-2-(2-fluoro-4-methylphenyl)acetamide, TFA]
129 | Cc1cc(F)cnc1Nc1cc(-c2ccccc2-c2nnn[nH]2)nc(N(Cc2ccccc2)CC(C)C)c1 [Example 152, 6-(2-(1H-tetrazol-5-yl)phenyl)-N2-benzyl-N4-(5-fluoro-3-methylpyridin-2-yl)-N2-isobutylpyridine-2,4-diamine]
159 | CCCN(Cc1ccccc1)c1cc(NC(=O)Cc2cc(OC)ccc2OC)cc(-c2ccccc2-c2nn[nH]n2)n1 [Example 204, N-(2-(2-(2H-tetrazol-5-yl)phenyl)-6-(benzyl(propyl)amino)pyridin-4-yl)-2-(2,5-dimethoxyphenyl)acetamide]
46.1 | CCCN(Cc1ccccc1)c1cc(NC(=O)Nc2ccc(C)cc2)cc(-c2cc(C)ccc2-c2nnn[nH]2)n1 [Example 301, 1-(2-(Benzyl(propyl)amino)-6-(5-methyl-2-(1H-tetrazol-5-yl)phenyl)pyridin-4-yl)-3-(p-tolyl)urea]
